The values below are quoted from earlier work in patent publication US20140148378A1, “ANTIBACTERIAL PEPTIDES” (THE REGENTS OF THE UNIVERSITY OF CALIFORNIA, priority 2012, published 2014).

For series [1] the following is noted: from bioactive peptide databases / literature.
For series [2] the following is noted: lactoferricin versus human lactoferrin.

Take “YQRRPAIAINNPYVPRTYYANPAVVRPHAQIPQRQYLPNSHPPTVVRRPNLHPSF (listed as Homo sapiens) [SEQ ID NO: 504]”: the “Known activity of overlapping literature bioactive peptide” value (from here on “Known activity”) in series [1] was “Antibacterial”.
With lactoferricin, in series [2], the “bactericidal effects relative to the parent protein” value is given as 10-100 times.
As to “QPTIPFFDPQIPK (listed as Homo sapiens) [SEQ ID NO: 505]”, in series [1], the “Known activity” value was “Immuno-”.
Consider “QELLLNPTHQYPVTQPLAPVHNPISV (listed as Homo sapiens) [SEQ ID NO: 506]”, for which the “Known activity” value in series [1] is recorded as “Antibacterial”.
